# According to patent publication US11090364B2, “Conjugates of a pharmaceutical agent and a moiety capable of binding to a glucose sensing protein” (SANOFI, priority 2016, dated 2021):
# Where two headings read alike, the source gives them in different places.
# Test system: A2780 Human Carcinoma Cells
# Assay: Glucose displacement assay (ATP measurement, CellTiter-Glo)
# Type: cell-based
# Protocol: 2. Glucose Displacement Assay (ATP Measurement)
# 30.000 A2780 Human Carcinoma Cells are seeded per well in a Greiner 96-well plate. Cells are expanded and cultured in RPMI 1640 medium+GlutaMAX® with 10% FCS and 11 mM glucose, at 37° C. with 5% CO2. After 44 h, culture media is changed and washed once with PBS to starvation media consisting of RPMI 1640 medium with 1% FCS without glucose for 2 hours. Cells are then washed with KRB buffer, followed incubation for 20 min at 37° C. of the treatment mix consisting of: 60 μL KRB buffer/well with 10 μL of compound or DMSO 10×. 10 μl of rotenone is added to the mix to a final concentration of 0.5 μM. Cell plates are left for 2 min at room temperature. 20 μL of different glucose concentrations are added to the mix—typically 0.1 to 20 mM range -. Cells are incubated for another 15 min at 37° C., before measuring ATP with the CellTiter-Glo® Assay, under manufacturer's guidance, but without the equilibration step at room temperature for 30 min. In brief, 100 μl of Cell-Titer-Glo® Reagent is added to the wells containing already 100 μl of the previous reaction mix. Plates are mixed for 2 min at 800 rpm, followed by incubation at room temperature for 10 min to stabilize the luminescent signal. Luminescence is then recorded with the Tekan Ultra Evolution reader.
molecule,measurement,setting,value
6-Desoxy-6-(3-undecenyloxypheny)-4-piperazin-1-yl-D-galactopyranose [Example 141],IC50,read-out: IC50,84.8 µM
COc1cc(C(=O)OC[C@H]2OC(O)[C@H](O)[C@@H](O)[C@@H]2O)cc(Cl)c1Oc1ccccc1 (some centres unmarked) [Example 138],IC50,"Homo sapiens, 10 mM Gluc, read-out: IC50 @ 10 mM Gluc",> 100 µM
same,IC50,"Homo sapiens, read-out: IC50",8.37 µM
Methyl-2-O-(3-chloro-3′-methoxy-4-phenoxyphenylcarbonyl)-α-D-glucopyranoside [Example 124],IC50,"10 mM Gluc, read-out: IC50 @ 10 mM Gluc",> 100 µM
same,IC50,read-out: IC50,33.2 µM
